This note sets out measurements from publication PMC11314561, “Design and Synthesis of Novel Aminoindazole-pyrrolo[2,3-b]pyridine Inhibitors of IKKα That Selectively Perturb Cellular Non-Canonical NF-κB Signalling” (Molecules, 2024).

Common to all, as to assay: kinase panel
What all share (assay type): biochemical

One assay deals with T1, DYRK2(h) (Homo sapiens, UniProt Q92630).
T1 sequence (Q92630 1-601): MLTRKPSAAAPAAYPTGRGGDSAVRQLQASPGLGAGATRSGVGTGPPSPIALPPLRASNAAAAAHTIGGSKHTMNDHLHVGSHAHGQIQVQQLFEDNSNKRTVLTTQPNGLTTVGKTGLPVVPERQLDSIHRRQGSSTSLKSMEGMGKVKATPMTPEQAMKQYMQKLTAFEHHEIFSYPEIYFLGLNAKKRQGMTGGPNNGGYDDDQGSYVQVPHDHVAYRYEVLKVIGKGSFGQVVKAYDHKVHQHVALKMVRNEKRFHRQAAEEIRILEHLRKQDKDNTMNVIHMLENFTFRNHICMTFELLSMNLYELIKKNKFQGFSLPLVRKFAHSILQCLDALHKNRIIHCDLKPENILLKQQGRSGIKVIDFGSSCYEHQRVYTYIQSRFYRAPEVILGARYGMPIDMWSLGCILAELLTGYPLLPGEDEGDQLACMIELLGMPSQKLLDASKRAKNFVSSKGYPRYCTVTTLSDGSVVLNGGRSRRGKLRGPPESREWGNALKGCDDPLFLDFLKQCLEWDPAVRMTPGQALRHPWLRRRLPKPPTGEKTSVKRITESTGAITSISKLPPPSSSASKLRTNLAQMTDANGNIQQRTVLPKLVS
The essentials: (§1)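 % inhibition read-out; kinome panel of 231 kinases; one analogue run on a selected 98-kinase subset only.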

The next assay addresses CDK6/cyclinD3(h) (Homo sapiens, UniProt Q00534). The essentials:
as §1

Another assay has as its target T2, PKCμ(h) (Homo sapiens, UniProt Q15139).
T2 sequence (Q15139 1-912): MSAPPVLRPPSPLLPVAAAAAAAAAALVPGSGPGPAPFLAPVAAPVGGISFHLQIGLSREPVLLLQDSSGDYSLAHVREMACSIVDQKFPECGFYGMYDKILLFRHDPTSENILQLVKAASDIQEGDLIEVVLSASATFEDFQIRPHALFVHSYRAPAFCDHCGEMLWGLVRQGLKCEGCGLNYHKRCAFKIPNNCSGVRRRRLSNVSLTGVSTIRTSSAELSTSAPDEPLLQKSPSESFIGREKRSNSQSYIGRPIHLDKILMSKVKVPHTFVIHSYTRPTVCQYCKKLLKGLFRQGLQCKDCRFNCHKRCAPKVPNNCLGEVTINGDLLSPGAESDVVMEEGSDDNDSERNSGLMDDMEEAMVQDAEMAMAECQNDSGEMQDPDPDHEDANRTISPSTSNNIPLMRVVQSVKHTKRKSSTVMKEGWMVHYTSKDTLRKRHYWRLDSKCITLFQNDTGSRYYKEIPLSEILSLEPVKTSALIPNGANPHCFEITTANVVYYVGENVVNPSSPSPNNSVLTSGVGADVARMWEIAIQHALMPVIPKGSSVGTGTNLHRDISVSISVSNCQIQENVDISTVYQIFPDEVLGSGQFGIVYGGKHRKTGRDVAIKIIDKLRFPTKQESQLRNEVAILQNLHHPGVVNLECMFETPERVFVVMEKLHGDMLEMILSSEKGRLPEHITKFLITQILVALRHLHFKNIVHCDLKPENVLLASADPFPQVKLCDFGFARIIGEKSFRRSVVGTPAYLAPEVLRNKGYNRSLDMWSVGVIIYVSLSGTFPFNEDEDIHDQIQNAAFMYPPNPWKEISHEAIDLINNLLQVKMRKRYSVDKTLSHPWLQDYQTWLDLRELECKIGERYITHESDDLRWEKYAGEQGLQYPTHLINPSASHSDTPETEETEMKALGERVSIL
In short, it runs like this: as §1

A further assay has as its target CaMKIIγ(h) (Homo sapiens, UniProt Q13555). The essentials:
as §1

A further assay concerns the target PKCα(h) (Homo sapiens, UniProt P17252). In short, it runs like this: as §1
The next assay deals with HIPK1(h) (Homo sapiens, UniProt Q86Z02). The essentials:
as §1

In a further assay the target is ErbB4(h) (Homo sapiens, UniProt Q15303). In short, it runs like this: as §1
A further assay addresses T3, IRAK4(h) (Homo sapiens, UniProt Q9NWZ3).
T3 sequence (Q9NWZ3 1-460): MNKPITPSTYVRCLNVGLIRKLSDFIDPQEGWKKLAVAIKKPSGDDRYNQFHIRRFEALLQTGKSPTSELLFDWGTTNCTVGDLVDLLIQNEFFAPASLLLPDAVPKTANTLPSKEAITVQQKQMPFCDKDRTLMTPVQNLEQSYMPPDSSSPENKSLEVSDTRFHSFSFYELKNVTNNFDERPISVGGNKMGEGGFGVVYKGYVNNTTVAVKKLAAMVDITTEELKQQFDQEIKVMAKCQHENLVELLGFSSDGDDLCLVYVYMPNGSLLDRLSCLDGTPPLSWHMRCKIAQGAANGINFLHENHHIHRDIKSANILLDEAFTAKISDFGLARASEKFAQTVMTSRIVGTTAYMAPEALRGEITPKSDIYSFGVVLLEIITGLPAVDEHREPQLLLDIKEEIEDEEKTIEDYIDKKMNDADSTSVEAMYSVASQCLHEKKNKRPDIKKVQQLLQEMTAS
The essentials: as §1

The target in another assay is CK2(h) (Homo sapiens, UniProt P68400). The essentials: as §1
A further assay deals with Aurora-B(h) (Homo sapiens, UniProt Q96GD4). In short, it runs like this:
as §1

Another assay deals with CDK1/cyclinB(h) (Homo sapiens, UniProt P06493). The essentials:
as §1

HIPK1(h), sequence (Q86Z02 whole entry): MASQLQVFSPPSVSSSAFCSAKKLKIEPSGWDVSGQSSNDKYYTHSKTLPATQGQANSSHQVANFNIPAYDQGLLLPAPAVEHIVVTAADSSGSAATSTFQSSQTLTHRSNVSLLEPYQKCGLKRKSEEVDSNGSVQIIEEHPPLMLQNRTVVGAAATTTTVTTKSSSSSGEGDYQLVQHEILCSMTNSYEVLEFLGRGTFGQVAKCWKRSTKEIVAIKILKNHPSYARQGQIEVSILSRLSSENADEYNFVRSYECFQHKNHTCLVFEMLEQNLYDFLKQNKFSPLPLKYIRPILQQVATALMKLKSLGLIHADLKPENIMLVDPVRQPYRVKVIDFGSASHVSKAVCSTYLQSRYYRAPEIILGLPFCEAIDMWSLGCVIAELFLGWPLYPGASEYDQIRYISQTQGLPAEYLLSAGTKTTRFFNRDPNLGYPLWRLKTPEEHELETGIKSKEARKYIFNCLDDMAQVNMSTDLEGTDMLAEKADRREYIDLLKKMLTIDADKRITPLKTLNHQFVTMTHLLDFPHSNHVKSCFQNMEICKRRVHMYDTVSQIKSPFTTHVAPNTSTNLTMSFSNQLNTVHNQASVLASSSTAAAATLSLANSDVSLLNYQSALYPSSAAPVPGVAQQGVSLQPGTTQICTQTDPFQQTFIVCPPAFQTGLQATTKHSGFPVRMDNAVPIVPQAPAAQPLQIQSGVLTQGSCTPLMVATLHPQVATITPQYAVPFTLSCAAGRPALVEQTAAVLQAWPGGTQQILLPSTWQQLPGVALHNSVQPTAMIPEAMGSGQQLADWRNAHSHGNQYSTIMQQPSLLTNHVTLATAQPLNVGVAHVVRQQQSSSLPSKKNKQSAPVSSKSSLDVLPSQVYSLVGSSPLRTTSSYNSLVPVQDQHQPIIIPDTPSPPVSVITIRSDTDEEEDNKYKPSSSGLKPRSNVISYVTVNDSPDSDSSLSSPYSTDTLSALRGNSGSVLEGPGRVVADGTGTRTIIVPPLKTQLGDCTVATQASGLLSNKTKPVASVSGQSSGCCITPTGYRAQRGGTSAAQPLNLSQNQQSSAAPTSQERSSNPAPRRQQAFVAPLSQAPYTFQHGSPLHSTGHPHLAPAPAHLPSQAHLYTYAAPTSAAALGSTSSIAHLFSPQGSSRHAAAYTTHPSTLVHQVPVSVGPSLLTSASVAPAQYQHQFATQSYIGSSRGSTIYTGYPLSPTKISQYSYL
CDK1/cyclinB(h), sequence (P06493 whole entry): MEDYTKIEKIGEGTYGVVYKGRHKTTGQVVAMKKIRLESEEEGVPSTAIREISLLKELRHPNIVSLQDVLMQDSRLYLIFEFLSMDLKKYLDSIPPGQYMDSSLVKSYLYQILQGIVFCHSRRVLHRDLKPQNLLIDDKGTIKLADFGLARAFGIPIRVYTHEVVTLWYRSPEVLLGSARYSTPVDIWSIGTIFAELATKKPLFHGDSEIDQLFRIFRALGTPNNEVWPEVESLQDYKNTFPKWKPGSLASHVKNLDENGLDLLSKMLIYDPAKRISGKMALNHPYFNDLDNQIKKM
CDK1/cyclinB(h), sequence (P14635 whole entry partner): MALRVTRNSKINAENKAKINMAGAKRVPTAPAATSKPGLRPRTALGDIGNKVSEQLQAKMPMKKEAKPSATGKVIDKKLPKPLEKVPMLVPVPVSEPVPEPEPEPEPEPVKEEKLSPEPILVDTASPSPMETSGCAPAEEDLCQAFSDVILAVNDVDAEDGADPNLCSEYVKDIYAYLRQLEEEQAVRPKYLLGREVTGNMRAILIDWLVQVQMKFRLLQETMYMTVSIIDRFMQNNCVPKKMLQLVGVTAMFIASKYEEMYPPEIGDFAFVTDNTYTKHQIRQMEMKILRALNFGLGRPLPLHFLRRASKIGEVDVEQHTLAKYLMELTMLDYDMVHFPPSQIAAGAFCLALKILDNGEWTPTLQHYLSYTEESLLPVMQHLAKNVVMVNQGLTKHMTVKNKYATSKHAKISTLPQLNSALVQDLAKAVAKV
Aurora-B(h), sequence (Q96GD4 whole entry): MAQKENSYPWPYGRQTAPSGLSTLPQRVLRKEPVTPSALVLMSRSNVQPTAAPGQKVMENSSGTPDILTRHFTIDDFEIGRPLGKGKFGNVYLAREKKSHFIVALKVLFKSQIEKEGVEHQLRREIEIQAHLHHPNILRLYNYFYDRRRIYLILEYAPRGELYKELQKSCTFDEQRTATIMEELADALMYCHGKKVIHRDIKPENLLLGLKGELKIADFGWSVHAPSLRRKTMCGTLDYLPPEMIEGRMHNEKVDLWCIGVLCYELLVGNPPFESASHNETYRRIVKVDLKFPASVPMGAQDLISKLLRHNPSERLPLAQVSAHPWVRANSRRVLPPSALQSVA
CaMKIIγ(h), sequence (Q13555 whole entry): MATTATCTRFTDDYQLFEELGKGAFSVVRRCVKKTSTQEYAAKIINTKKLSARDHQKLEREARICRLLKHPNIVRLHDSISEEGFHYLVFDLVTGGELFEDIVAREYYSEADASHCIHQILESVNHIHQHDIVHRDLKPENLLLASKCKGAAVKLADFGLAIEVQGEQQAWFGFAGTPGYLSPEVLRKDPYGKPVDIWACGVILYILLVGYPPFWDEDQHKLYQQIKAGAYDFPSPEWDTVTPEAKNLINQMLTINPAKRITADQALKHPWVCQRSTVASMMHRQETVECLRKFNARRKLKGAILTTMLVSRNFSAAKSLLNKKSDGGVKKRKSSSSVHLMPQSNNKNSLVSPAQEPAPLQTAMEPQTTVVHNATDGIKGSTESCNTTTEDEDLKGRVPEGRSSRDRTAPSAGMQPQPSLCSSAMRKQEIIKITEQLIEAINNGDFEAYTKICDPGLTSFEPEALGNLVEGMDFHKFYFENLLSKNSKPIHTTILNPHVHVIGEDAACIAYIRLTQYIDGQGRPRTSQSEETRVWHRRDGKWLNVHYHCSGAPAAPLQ
ErbB4(h), sequence (Q15303 26-1308): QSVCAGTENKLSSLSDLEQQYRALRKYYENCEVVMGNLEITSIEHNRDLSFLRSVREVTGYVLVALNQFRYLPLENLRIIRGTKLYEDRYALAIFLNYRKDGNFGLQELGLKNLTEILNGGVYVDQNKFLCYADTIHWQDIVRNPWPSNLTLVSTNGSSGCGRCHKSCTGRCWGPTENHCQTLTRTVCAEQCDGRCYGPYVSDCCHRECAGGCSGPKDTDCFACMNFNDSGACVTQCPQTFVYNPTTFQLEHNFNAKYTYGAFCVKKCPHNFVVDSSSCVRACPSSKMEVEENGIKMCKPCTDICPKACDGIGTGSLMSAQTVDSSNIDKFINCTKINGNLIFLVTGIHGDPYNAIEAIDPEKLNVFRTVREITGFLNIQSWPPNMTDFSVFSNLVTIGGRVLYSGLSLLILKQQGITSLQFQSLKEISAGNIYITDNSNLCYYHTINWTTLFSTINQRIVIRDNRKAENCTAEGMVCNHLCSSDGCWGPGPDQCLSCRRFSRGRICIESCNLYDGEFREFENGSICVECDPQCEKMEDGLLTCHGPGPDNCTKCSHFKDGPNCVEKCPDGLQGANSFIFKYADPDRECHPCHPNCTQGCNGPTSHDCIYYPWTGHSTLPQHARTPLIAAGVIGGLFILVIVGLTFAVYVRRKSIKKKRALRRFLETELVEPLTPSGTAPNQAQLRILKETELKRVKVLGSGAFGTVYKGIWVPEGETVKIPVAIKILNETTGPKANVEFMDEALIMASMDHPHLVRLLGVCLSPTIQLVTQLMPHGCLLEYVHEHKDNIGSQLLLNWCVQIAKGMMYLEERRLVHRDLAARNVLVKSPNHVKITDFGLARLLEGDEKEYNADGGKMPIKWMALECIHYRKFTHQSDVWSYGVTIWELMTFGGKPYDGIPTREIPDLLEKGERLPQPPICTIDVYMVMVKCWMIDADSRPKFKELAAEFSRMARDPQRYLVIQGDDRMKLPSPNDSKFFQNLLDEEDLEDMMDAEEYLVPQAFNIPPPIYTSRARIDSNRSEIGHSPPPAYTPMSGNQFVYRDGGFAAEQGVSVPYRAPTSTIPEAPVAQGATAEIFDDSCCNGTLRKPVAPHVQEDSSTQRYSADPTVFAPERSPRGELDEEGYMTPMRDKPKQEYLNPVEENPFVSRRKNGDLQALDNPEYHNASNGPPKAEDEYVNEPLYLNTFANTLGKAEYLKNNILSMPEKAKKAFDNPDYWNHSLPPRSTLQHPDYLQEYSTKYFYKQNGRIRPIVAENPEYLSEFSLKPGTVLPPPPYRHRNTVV

Turning to `Nc1n[nH]c2ccc(-c3ccnc4[nH]c(-c5ccccc5)cc34)cc12` [Compound 4], the inhibition at 1 µM against DYRK2(h) amounted to 43%; against CDK6/cyclinD3(h), 82%; on PKCμ(h), 21%; against CaMKIIγ(h) it was 93%; on PKCα(h) it was 5%; at HIPK1(h), 14%. Also, the inhibition at 1 µM against ErbB4(h) was 20%; at IRAK4(h), 25%; at CK2(h) it was -7%; on Aurora-B(h), 99%; against CDK1/cyclinB(h) it was 101%.
For the molecule `Nc1n[nH]c2ccc(-c3ccnc4[nH]c(-c5cccc(OCc6ccccc6)c5)cc34)cc12` [Compound 5r [SU1261]], the inhibition at 1 µM against DYRK2(h) was 14%; against CDK6/cyclinD3(h) it was 17%; against PKCμ(h) it was 18%; at CaMKIIγ(h), 84%; on PKCα(h), 23%; against HIPK1(h) it was -11%. Also, the inhibition at 1 µM was 14% on ErbB4(h); 3% at IRAK4(h); -5% at CK2(h); 92% on Aurora-B(h); 77% at CDK1/cyclinB(h).
For `Nc1n[nH]c2ccc(-c3ccnc4[nH]c(-c5ccnc(OCc6ccccc6)c5)cc34)cc12` [Compound 6g [SU1349]], the inhibition at 1 µM was 9% on DYRK2(h); -13% on CDK6/cyclinD3(h); -9% at PKCμ(h); 46% at CaMKIIγ(h); -1% against PKCα(h); 5% against HIPK1(h). In addition, the inhibition at 1 µM is -5% on ErbB4(h); -8% on IRAK4(h); 2% at CK2(h); 71% against Aurora-B(h); 58% against CDK1/cyclinB(h).

In general, inhibition refers to the relative decrease from the control value, in per cent.
